Article PMC9230030, “Discovery of a Multifunctional Octapeptide from Lingzhi with Antioxidant and Tyrosinase Inhibitory Activity” (Pharmaceuticals, 2022)
Ends that are not written are not given here.

Legend:
[1] = tested on: mushroom tyrosinase; experiment: In vitro tyrosinase inhibition assay (dopachrome, absorbance at 475 nm); assay type: biochemical; details: octapeptide 0.05 mg/mL
Protocol: To understand how the octapeptide modulates melanogenic enzymes, the activity of tyrosinase in the presence of the peptide was measured by the colorimetric assay. We used the time-dependent assay to confirm that the inhibition reaction occurred with dopachrome accumulation (absorbance at 475 nm). The time-dependent tyrosinase inhibition and the inhibition percentage of the octapeptide at a 50 ug/mL concentration are shown in Figure 2. The inhibitory effect of the octapeptide was determined against mushroom tyrosinase. The mixture of 10 µL of tyrosinase (20 enzyme unit/mL) in 50 mM phosphate buffer, pH 6.8, was added to 96-well plates containing 10 µL of the octapeptide (final concentration = 0.05 mg/mL), then 180 µL of 1 mM L-DOPA was added to start the reaction. […] Monitoring the inhibitory activity by measuring the absorbance at 475 nm for 60 min in a kinetic manner (reading every 1 min) using a microplate reader (Synergy H1, Biotek Inc., Winooski, VT, USA). The tyrosinase inhibitory activity was expressed as a percentage of inhibition at the end-point reaction (t = 60 min) by the equation. […] where Abssample is the absorbance of the reaction with the octapeptide and Absblank denotes the absorbance of the reaction without the testing sample (a buffer in each assay was added instead of the testing sample).

[2] = Ferric reducing antioxidant power (FRAP) assay; details: octapeptide 1 mg/mL, 10 µL; 30 min room temperature in the dark, absorbance 593 nm; mean ± SD, n = 3
Protocol: Since the antioxidant activity of a substance should be determined by different assays to study the radical scavenging mechanisms, the in vitro radical scavenging potential of the synthesized octapeptide was determined by three different common methods: 2,2-diphenyl-1-picrylhydrazyl (DPPH), 2,2′-azino-bis(3-ethylbenzothiazoline-6-sulfonate) (ABTS), and ferric reducing antioxidant power (FRAP) assays. […] The scavenging activities were calculated to be 0.121 ± 0.01 AsEAC and 0.173 ± 0.03 GaEAC for the DPPH and the ABTS assay, respectively.
For the DPPH scavenging activity, 10 µL of the octapeptide (1 mg/mL) was mixed with 200 µL DPPH solution (0.2 mM in methanol). […] The DPPH scavenging activity of the samples was expressed as the ascorbic acid equivalent antioxidant capacity (AsEAC). For the ABTS scavenging activity, ABTS radical solution (7 mM ABTS stock solution with 2.45 mM potassium persulfate) was diluted in 5 mM phosphate buffer saline (Gibco, Waltham, MA, USA), pH 7.4, to acquire an absorbance of 0.50 at 734 nm before performing the assay. […] The absorbance of the mixture was evaluated at 734 nm. The ABTS scavenging activity of the samples was expressed as the gallic equivalent antioxidant capacity (GaEAC). […] The absorbance was measured at 593 nm. The FRAP scavenging activity of the samples was expressed as FeSO4 molar equivalents.

[3] = tested on: 5,6-dihydroxyindole-2-carboxylic acid oxidase; Tyrp1; experiment: Targeted proteomics in melanoma cells: Tyrp1; assay type: cell-based, Mus musculus; details: melanoma cells treated with octapeptide 50 μg/mL, 48 h, vs control; LC-MS/MS proteomics
Protocol: (§1) Although using the tyrosinase enzyme extracted from a mushroom for an in vitro tyrosinase inhibitory assay has been widely studied as a routine screening for tyrosinase inhibition, tyrosinase from the mushroom is located in the cytoplasm and is different from the mammalian tyrosinase that is found on the membrane of melanocytes. Therefore, cell-based assays are also usually utilized to identify the potential tyrosinase inhibitor. In our study, the effects of the octapeptide at 50 μg/mL in melanoma cells was investigated by a proteomics approach. […]
(§2) The Mus musculus skin melanoma cell line (B16-F10 ATCC, CRL-6475) and Cercopithecus aethiops kidney normal cell line (Vero ATCC, CCL-81) were used to explore the cell cytotoxicity. The effect of the octapeptide on the skin was evaluated in skin carcinoma cells. […] The cell viability was analyzed using the MTT (3-(4,5-dimethylthiazol-2-yl)-2,5-diphenyltetrazolium bromide) assay. […] After incubation for 24 h, the cell viability was measured by the optical absorbance at 630 and 570 nm using a microplate reader and transformed into the percentage of cell survival. […]
(§3) The mzXML data were evaluated by the relative comparison of the peak intensities of each peptide ion in all datasets by DeCyder MS Differential Analysis software version 2.0 (GE Healthcare Co., Boston, MA, USA). […]

[4] = tested on: L-dopachrome tautomerase; Dct; experiment: Targeted proteomics in melanoma cells: Dct; assay type: cell-based, Mus musculus; details: melanoma cells treated with octapeptide 50 μg/mL, 48 h, vs control; LC-MS/MS proteomics
Protocol: as §1, §2, §3

[5] = tested on: Ras-related protein Rab-7L1; Rab29; experiment: Targeted proteomics in melanoma cells: Rab29; assay type: cell-based, Mus musculus; details: melanoma cells treated with octapeptide 50 μg/mL, 48 h, vs control; LC-MS/MS proteomics
Protocol: as §1, §2, §3

Q: For “PVRSSNCA [octapeptide, Proline-Valine-Arginine-Serine-Serine-Asparaine-Cysteine-Alanine]”, which “tyrosinase inhibitory effect at end point (60 min)” value ([1]; 1 mM L-DOPA, 50 mM phosphate buffer pH 6.8, 37 °C, t = 60 min, mean ± SD, n = 3) is on record?
A: The value was 13.48 ± 2.12%.

Q: What about the “tyrosinase inhibitory effect during the first 30 min of the reaction” value ([1]; time-dependent assay, rate similar to control) of the same sequence?
A: Its value is “not observed”.

Q: What about the “FRAP reductant ability, FeSO4 molar equivalents” value [2] of the same sequence?
A: Its value is 2.21 ± 0.23 mM equivalent to FeSO4.

Q: And the “Relative Expression (Fold) of Tyrp1” value [3]?
A: Its value is 0.5034 Fold.

Q: What about the “Relative Expression (Fold) of Dct” value [4] of the same sequence?
A: Its value is 2.0460 Fold.

Q: What about the “Relative Expression (Fold) of Rab29” value [5] of the same sequence?
A: The value was 2.0646 Fold.
